Assay results taken from patent US10245261B2, “Substituted indol-5-ol derivatives and their therapeutic applications” (NantBioScience, Inc., priority 2013, dated 2019).
Each block holds one compound with its values, some of them ahead of it.

What was measured:
Abl (M351T)(h) = Abl (M351T)(h) (Homo sapiens, UniProt P00519, M351T); assay: KinaseProfiler kinase assay; assay type: biochemical
FGFR2(h) = FGFR2(h) (Homo sapiens, UniProt P21802); assay: KinaseProfiler kinase assay; assay type: biochemical
FGFR2(h), sequence (P21802 22-821): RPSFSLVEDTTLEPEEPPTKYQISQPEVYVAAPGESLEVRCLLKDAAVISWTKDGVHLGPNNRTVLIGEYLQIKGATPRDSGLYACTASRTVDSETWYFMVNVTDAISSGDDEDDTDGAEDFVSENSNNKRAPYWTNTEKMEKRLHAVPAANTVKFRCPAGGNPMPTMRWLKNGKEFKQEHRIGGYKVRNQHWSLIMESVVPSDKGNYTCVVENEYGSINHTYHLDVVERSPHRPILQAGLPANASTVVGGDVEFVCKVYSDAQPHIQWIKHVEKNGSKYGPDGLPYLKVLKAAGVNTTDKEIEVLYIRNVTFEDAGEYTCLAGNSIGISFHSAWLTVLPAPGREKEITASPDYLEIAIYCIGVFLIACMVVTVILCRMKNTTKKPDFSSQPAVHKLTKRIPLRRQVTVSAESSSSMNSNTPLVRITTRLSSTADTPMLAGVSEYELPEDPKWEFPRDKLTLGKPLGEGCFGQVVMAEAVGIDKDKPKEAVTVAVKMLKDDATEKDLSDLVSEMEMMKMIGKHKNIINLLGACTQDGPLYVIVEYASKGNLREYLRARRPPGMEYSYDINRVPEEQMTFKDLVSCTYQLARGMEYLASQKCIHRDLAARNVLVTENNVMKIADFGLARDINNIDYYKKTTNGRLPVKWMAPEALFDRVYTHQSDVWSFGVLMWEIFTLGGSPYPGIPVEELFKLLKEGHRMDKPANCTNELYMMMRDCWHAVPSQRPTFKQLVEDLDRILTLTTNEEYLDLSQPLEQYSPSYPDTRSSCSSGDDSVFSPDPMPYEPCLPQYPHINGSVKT

FGFR3(h) = FGFR3(h) (Homo sapiens, UniProt P22607); assay: KinaseProfiler kinase assay; assay type: biochemical
FGFR3(h), sequence (P22607 23-806): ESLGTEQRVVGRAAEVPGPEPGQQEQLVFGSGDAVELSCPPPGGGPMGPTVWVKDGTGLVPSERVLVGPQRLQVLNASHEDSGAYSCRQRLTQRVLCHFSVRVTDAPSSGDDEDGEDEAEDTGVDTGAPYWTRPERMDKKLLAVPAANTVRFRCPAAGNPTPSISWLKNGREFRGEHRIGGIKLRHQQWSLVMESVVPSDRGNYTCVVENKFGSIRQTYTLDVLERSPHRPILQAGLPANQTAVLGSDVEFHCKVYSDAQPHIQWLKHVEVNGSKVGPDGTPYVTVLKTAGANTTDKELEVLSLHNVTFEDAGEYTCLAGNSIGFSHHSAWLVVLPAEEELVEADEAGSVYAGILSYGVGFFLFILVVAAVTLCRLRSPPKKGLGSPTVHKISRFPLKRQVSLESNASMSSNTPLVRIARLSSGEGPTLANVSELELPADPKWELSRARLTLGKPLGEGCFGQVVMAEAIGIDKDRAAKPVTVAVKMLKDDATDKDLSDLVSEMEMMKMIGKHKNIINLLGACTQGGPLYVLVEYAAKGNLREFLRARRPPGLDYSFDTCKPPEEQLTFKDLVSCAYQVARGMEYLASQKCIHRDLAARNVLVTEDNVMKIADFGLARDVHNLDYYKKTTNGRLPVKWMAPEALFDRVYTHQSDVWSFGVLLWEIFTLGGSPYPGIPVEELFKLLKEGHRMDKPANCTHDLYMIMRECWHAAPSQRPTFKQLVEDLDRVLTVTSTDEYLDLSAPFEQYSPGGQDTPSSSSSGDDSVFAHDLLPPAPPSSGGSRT

Abl (H396P) (h) = Abl (H396P) (h) (Homo sapiens, UniProt P00519, H396P); assay: KinaseProfiler kinase assay; assay type: biochemical
Ret(V804M)(h) = Ret(V804M)(h) (Homo sapiens, UniProt P07949, V804M); assay: KinaseProfiler kinase assay; assay type: biochemical
Ret(V804M)(h), sequence (P07949 29-1114 V804M): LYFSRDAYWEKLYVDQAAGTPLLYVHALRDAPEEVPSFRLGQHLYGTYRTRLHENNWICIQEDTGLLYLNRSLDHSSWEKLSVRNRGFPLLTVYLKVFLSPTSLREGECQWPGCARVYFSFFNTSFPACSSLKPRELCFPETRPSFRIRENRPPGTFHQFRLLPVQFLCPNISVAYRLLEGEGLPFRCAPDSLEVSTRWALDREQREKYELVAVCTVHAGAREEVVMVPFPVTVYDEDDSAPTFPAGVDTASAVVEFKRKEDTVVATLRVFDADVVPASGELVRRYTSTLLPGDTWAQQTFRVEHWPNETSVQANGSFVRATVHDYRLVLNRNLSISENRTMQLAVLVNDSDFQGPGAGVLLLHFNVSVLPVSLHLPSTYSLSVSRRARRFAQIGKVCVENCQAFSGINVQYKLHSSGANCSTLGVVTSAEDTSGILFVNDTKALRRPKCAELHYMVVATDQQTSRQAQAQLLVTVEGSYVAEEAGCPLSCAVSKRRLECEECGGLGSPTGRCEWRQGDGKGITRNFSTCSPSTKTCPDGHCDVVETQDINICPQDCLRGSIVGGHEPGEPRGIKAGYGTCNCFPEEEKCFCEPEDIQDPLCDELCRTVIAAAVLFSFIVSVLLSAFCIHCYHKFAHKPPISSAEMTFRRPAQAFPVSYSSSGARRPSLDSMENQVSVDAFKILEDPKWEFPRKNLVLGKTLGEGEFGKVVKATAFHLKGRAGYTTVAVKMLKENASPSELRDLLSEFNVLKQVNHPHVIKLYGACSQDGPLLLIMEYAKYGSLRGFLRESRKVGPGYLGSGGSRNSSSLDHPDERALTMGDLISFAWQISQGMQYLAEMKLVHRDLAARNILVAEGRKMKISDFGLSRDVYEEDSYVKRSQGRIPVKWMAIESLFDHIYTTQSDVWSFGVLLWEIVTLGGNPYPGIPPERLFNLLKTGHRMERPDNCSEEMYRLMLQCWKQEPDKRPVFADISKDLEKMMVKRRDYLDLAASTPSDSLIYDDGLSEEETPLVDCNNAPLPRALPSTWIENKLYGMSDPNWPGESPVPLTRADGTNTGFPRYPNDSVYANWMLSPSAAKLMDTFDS
How it was run: (§1)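 Buffer 20 mM MOPS, 1 mM EDTA, 0.01% Brij-35, 5% glycerol, 0.1% β-mercaptoethanol, 1 mg/mL BSA for compound dilution; reaction at pH 7.0 with [γ-33P]ATP, 40 min RT; filtermat/scintillation read-out; 0%/100% set by no-kinase and phosphopeptide wells.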

Ret (V804L)(h) = Ret (V804L)(h) (Homo sapiens, UniProt P07949, V804L); assay: KinaseProfiler kinase assay; assay type: biochemical
Ret (V804L)(h), sequence (P07949 29-1114 V804L): as the sequence (P07949 29-1114 V804M) above, with M776L counted along it
How it was run: as §1

FGFR4(h) = FGFR4(h) (Homo sapiens, UniProt P22455); assay: KinaseProfiler kinase assay; assay type: biochemical
FGFR4(h), sequence (P22455 22-802): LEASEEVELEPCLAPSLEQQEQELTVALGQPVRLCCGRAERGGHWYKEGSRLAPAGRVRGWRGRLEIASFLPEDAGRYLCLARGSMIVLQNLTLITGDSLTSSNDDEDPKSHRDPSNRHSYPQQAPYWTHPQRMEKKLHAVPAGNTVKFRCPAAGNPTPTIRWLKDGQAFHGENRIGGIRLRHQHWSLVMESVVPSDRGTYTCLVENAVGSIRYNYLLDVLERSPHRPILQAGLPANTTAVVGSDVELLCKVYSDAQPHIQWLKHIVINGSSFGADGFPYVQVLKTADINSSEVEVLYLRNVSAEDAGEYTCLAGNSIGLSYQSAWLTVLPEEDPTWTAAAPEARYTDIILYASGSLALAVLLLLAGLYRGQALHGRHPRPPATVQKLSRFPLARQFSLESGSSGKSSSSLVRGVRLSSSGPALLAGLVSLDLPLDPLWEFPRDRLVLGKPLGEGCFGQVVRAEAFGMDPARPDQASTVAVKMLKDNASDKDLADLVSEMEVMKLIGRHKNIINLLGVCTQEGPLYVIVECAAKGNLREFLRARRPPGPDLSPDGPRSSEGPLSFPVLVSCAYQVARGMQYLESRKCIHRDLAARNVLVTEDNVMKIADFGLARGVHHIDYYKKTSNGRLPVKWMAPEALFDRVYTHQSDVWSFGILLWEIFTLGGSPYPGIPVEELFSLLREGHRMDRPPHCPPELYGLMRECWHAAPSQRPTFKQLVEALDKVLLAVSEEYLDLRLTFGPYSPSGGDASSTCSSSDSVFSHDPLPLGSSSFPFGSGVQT

Abl(T315I)(h) = Abl(T315I)(h) (Homo sapiens, UniProt P00519, T315I); assay: KinaseProfiler kinase assay; assay type: biochemical
Abl(Y253F)(h) = Abl(Y253F)(h) (Homo sapiens, UniProt P00519, Y253F); assay: KinaseProfiler kinase assay; assay type: biochemical
IR(h), activated = IR(h), activated (Homo sapiens, UniProt P06213); assay: KinaseProfiler kinase assay; assay type: biochemical
IR(h), activated, sequence (P06213 1005-1310): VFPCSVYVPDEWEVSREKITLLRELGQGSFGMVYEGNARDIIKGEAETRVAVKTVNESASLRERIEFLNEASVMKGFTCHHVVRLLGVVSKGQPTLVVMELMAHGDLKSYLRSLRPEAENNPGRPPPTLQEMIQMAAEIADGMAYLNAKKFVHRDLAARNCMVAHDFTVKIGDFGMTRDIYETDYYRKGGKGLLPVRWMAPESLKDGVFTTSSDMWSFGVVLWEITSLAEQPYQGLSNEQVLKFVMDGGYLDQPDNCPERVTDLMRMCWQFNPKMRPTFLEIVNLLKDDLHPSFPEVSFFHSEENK

CaMKIIδ(h) = CaMKIIδ(h) (Homo sapiens, UniProt Q13557); assay: KinaseProfiler kinase assay; assay type: biochemical
[1] = tested on: human K562 chronic myelogenous leukemia (CML) xenograft; assay: CML xenograft model in female SCID mice; assay type: in vivo, mouse
Method: The objective of the second study was to evaluate antitumor activities of novel multiple-kinase inhibitor NTW-3475 in human K562 chronic myelogenous leukemia (CML) xenograft model in female SCID mice.
Four to six animals were randomly assigned to study groups. Each animal was weighed, and then injected subcutaneously in the left and right flank area with 0.1 ml of 8.0×10^7 K562 cells per mL.
(§2) Each test or control animal was on a 5-day on, two-day off for two cycles treatment schedule. Tumor growth was measured with a digital hand held caliper twice weekly (once tumor emerges) prior to the first dosing and then two to three times weekly until euthanized. Animals were weighed prior to tumor cell injection, prior to dosing, two to three times weekly with tumor growth measurements, and prior to euthanasia.
This example illustrated antitumor activities of Compound 10 and 11 in human K562 chronic myelogenous leukemia (CML) xenograft model in female SCID mice.
On the appropriate days, each animal in an appropriate group will receive a specific amount of test article either at 75 or 100 mg/kg, and the dosing volume is 10 ml/kg by oral gavage as indicated. Dosing schedule will be once daily for 10 days (qd×10, 5 days on and 2 days off for 2 cycles).

[2] = tested on: TT human Thyroid carcinoma xenograft; assay: Thyroid carcinoma xenograft; assay type: in vivo, mouse
Method: This example assesses Compound 10, 53 and 88's anti-tumor activity using a SCID mouse xenograft models for TT human Thyroid carcinoma xenograft (FIGS. 65 to 69.)
On the appropriate days, each animal in an appropriate group will receive a specific amount of Compound 10 either at 50 or 100 mg/kg, and the dosing volume is 10 ml/kg by oral gavage as indicated. Dosing schedule will be once daily for 30 days.
On the appropriate days, each animal in an appropriate group will receive a specific amount of Compound 53 either at 50 or 100 mg/kg, and the dosing volume is 10 ml/kg by oral gavage as indicated. Dosing schedule will be once daily for 30 days.
Dosing schedule will be once daily for 30 days.

[3] = tested on: human MV411 human acute myelogenous leukemia (AML) xenograft; assay: AML xenograft model in female SCID mice; assay type: in vivo, mouse
Method: The objective of the first study was to evaluate antitumor activities of the novel multiple-kinase inhibitor NTW-3475 against human MV411 human acute myelogenous leukemia (AML) xenograft model in female SCID mice.
Four or six animals were randomly assigned to each study group. Each animal was injected subcutaneously in the left and right flank area with 0.1 ml of 1.0×10^8 MV411 cells per mL.
as §2, with “animal was placed on a” for “animal was on a”, “two cycles of vehicle negative control or 25, 50 mg/kg of NTW-3475. Tumor growth” for “two cycles treatment schedule. Tumor growth”
The objective of the first study was to evaluate antitumor activities of the novel multiple-kinase inhibitor Compounds 11, 68, and 82 against human MV411 human acute myelogenous leukemia (AML) xenograft model in female SCID mice.
as §2, with “animal was placed on a” for “animal was on a”, “two cycles of vehicle negative control or 25, 50 mg/kg of compound. Tumor growth” for “two cycles treatment schedule. Tumor growth”

Compound: C/C=C/c1cc(Nc2cc(N3CCN(C)CC3)nc(Oc3ccc4[nH]c(C)cc4c3F)n2)n[nH]1 [Compound 53]
IC50 (Abl (M351T)(h); Abl(M351T)): 0.7 nM
IC50 (FGFR2(h); FGFR2): 2 nM
IC50 (FGFR3(h); FGFR3): 1 nM
IC50 (Abl (H396P) (h); Abl (H396P)): < 0.1 nM
IC50 (Ret(V804M)(h); Ret(V804M mutation)): 6 nM
IC50 (Ret (V804L)(h); Ret(V804L mutation)): 10 nM
IC50 (FGFR4(h); FGFR4): 13 nM
IC50 (Abl(T315I)(h); Abl(T315I)): 0.5 nM
IC50 (Abl(Y253F)(h); Abl (Y253F)): 0.5 nM

Compound: Cc1cc2c(F)c(Oc3nc(Nc4cc(C5CC5)[nH]n4)cc(N4CCN(C)CC4)n3)ccc2[nH]1 [Compound 10]
inhibition at 0.1 µM (Abl (M351T)(h)): 99%
inhibition at 0.1 µM (FGFR2(h)): 99%
inhibition at 0.1 µM (FGFR3(h)): 100%
inhibition at 0.1 µM (IR(h), activated): 73%
inhibition at 0.1 µM (Abl (H396P) (h)): 99%
inhibition at 0.1 µM (CaMKIIδ(h)): -6%
inhibition at 0.1 µM (Ret(V804M)(h)): 96%
inhibition at 0.1 µM (Ret (V804L)(h)): 103%
inhibition at 0.1 µM (FGFR4(h)): 88%
inhibition at 0.1 µM (Abl(T315I)(h)): 101%
anti-tumor effect [1]: strong anti-tumor effect
body weight change [1]: no body weight lost
inhibition at 0.1 µM (Abl(Y253F)(h)): 103%
anti-tumor effect [2]: anti-tumor effect

inhibition at 0.1 µM (Abl (M351T)(h)): 102%
inhibition at 0.1 µM (FGFR2(h)): 99%
inhibition at 0.1 µM (FGFR3(h)): 101%
inhibition at 0.1 µM (IR(h), activated): 71%
inhibition at 0.1 µM (Abl (H396P) (h)): 102%
inhibition at 0.1 µM (CaMKIIδ(h)): 6%
inhibition at 0.1 µM (Ret(V804M)(h)): 101%
inhibition at 0.1 µM (Ret (V804L)(h)): 102%
inhibition at 0.1 µM (FGFR4(h)): 78%
inhibition at 0.1 µM (Abl(T315I)(h)): 102%
inhibition at 0.1 µM (Abl(Y253F)(h)): 100%
Compound: Cc1cc2c(F)c(Oc3nc(Nc4cc(C5CC5)[nH]n4)cc(N4CCNCC4)n3)ccc2[nH]1 [Compound 11, N-(5-cyclopropyl-1H-pyrazol-3-yl)-2-((4-fluoro-2-methyl-1H-indol-5-yl)oxy)-6-(piperazin-1-yl)pyrimidin-4-amine]
anti-tumor effect [1]: strong anti-tumor effect
body weight change [1]: no body weight lost
anti-tumor effect [3]: strong anti-tumor effect
body weight change [3]: minimal body weight lost

Compound: C/C=C/c1cc(Nc2cc(N3CCN(CCO)CC3)nc(Oc3cc(F)c4[nH]c(C)cc4c3F)n2)n[nH]1 [Compound 88]
anti-tumor effect [2]: Inhibits Tumor Growth

Compound: Cc1cc2c(F)c(Oc3nc(Nc4cc(C5CC5)[nH]n4)cc(N4CCNCC4)n3)cc(F)c2[nH]1 [Compound 82]
anti-tumor effect [3]: strong anti-tumor effect
body weight change [3]: minimal body weight lost

Compound: C/C=C/c1cc(Nc2cc(N3CCNCC3)nc(Oc3ccc4[nH]c(C)cc4c3F)n2)n[nH]1 [Compound 68]
anti-tumor effect [3]: strong anti-tumor effect
body weight change [3]: minimal body weight lost

kinase inhibition of T315I abl mutant (Abl(T315I)(h)): inhibits
Compound: C/C=C/c1cc(Nc2cc(N3CCN(C)CC3)nc(Oc3cc(F)c4[nH]c(C)cc4c3F)n2)n[nH]1 [NTW-3456]
anti-tumor effect [1]: significant anti-tumor activity
anti-tumor effect [3]: significant anti-tumor activity
anti-tumor effect [2]: significant anti-tumor activity
